Assay: in vivo
Conditions: rat

Row | bioavailability [%] | Structure (SMILES)
1 | 63 | CC(C)(O)c1ccccc1CC[C@@H](SCC1(CC(=O)O)CC1)c1cccc(/C=C/c2ccc3ccc(Cl)cc3n2)c1 [MONTELUKAST]
2 | 25 | COc1cc(C(=O)NS(=O)(=O)c2ccccc2C)ccc1Cc1cn(C)c2ccc(NC(=O)OC3CCCC3)cc12 [ZAFIRLUKAST]
